Measured values: ChEMBL document CHEMBL4715742, “Design, synthesis and cytotoxic activities of novel 2,5-diketopiperazine derivatives” (Eur J Med Chem, 2016)

Experiments:
U-937 [1] = assay: Induction of apoptosis in human U-937 cells assessed as necrotic cells at 0.015 uM measured after 24 hrs by annexinV/FITC-propidium iodide staining based flow cytometry (reference value: 1.12 to 1.48 %); type: functional
DU-145 = assay: Cytotoxicity against human DU-145 cells assessed as reduction in cell viability measured after 72 hrs by CCK8 assay; type: functional, cell-based
U-937 [2] = assay: Induction of apoptosis in human U-937 cells assessed as early apoptotic cells at 0.015 uM measured after 24 hrs by annexinV/FITC-propidium iodide staining based flow cytometry (reference value: 1.28 to 1.68 %); type: functional
U-937 [3] = assay: Induction of apoptosis in human U-937 cells assessed as early apoptotic cells at 0.015 uM measured after 48 hrs by annexinV/FITC-propidium iodide staining based flow cytometry (reference value: 1.78 to 1.88 %); type: functional
HT-29 = assay: Cytotoxicity against human HT-29 cells assessed as reduction in cell viability measured after 72 hrs by CCK8 assay; type: functional, cell-based
U-937 [4] = assay: Induction of apoptosis in human U-937 cells assessed as apoptotic ratio at 0.015 uM measured after 24 hrs by annexinV/FITC-propidium iodide staining based flow cytometry (reference value: 3.7 +/- 0.3 %); type: functional
HeLa = assay: Cytotoxicity against human HeLa cells assessed as reduction in cell viability measured after 72 hrs by CCK8 assay; type: functional, cell-based
U-937 [5] = assay: Induction of apoptosis in human U-937 cells assessed as late apoptotic cells at 0.015 uM measured after 24 hrs by annexinV/FITC-propidium iodide staining based flow cytometry (reference value: 2.18 to 2.22 %); type: functional
U-937 [6] = assay: Induction of apoptosis in human U-937 cells assessed as necrotic cells at 0.015 uM measured after 48 hrs by annexinV/FITC-propidium iodide staining based flow cytometry (reference value: 0.794 to 0.955 %); type: functional
K562 = assay: Cytotoxicity against human K562 cells assessed as reduction in cell viability measured after 72 hrs by CCK8 assay; type: functional, cell-based
U-937 [7] = assay: Cytotoxicity against human U-937 cells assessed as reduction in cell viability measured after 72 hrs by CCK8 assay; type: functional, cell-based
U-937 [8] = assay: Induction of apoptosis in human U-937 cells assessed as viable cells at 0.015 uM measured after 24 hrs by annexinV/FITC-propidium iodide staining based flow cytometry (reference value: 95 to 95.1 %); type: functional; conditions: read-out: Activity
MCF7 = assay: Cytotoxicity against human MCF7 cells assessed as reduction in cell viability measured after 72 hrs by CCK8 assay; type: functional, cell-based
U-937 [9] = assay: Induction of apoptosis in human U-937 cells assessed as apoptotic ratio at 0.015 uM measured after 48 hrs by annexinV/FITC-propidium iodide staining based flow cytometry (reference value: 5.2 +/- 0.2 %); type: functional
A549 = assay: Cytotoxicity against human A549 cells assessed as reduction in cell viability measured after 72 hrs by CCK8 assay; type: functional, cell-based
U-937 [10] = assay: Induction of apoptosis in human U-937 cells assessed as viable cells at 0.015 uM measured after 48 hrs by annexinV/FITC-propidium iodide staining based flow cytometry (reference value: 93.7 to 94.2 %); type: functional; conditions: read-out: Activity
HL-60 = assay: Cytotoxicity against human HL-60 cells assessed as reduction in cell viability measured after 72 hrs by CCK8 assay; type: functional, cell-based
U-937 [11] = assay: Induction of apoptosis in human U-937 cells assessed as late apoptotic cells at 0.015 uM measured after 48 hrs by annexinV/FITC-propidium iodide staining based flow cytometry (reference value: 3.27 to 3.41 %); type: functional
[12] = Homo sapiens, DU-145, 72 h, read-out: IC50
[13] = Homo sapiens, HT-29, 72 h, read-out: IC50
[14] = Homo sapiens, HeLa, 72 h, read-out: IC50
[15] = Homo sapiens, K562, 72 h, read-out: IC50
[16] = Homo sapiens, U-937, 72 h, read-out: IC50
[17] = Homo sapiens, MCF7, 72 h, read-out: IC50
[18] = Homo sapiens, A549, 72 h, read-out: IC50
[19] = Homo sapiens, HL-60, 72 h, read-out: IC50

Row | Structure (SMILES) | IC50 (DU-145; [12]) [nM] | IC50 (HT-29; [13]) [nM] | IC50 (HeLa; [14]) [nM] | IC50 (K562; [15]) [nM] | IC50 (U-937 [7]; [16]) [nM] | IC50 (MCF7; [17]) [nM] | IC50 (A549; [18]) [nM] | IC50 (HL-60; [19]) [nM] | IC50 (DU-145; du-145) | IC50 (HT-29; ht-29) | IC50 (HeLa; hela) | IC50 (K562; k562) | IC50 (U-937 [7]; u-937) | IC50 (MCF7; mcf7) | IC50 (A549; a549) | IC50 (HL-60; hl-60) | other results
1 | CC(C)(C)c1[nH]cnc1/C=c1\[nH]c(=O)/c(=C/c2ccccc2)[nH]c1=O [PLINABULIN] | 14 | 13 | 8.4 | 6.3 | 6.8 | 12.6 | 5.5 | 14.8 | – | – | – | – | – | – | – | – | Activity (U-937 [1]): 1.13%; Activity (U-937 [2]): 11.7%; Activity (U-937 [3]): 6.44%; Activity (U-937 [4]): 31.8%; Activity (U-937 [5]): 19.3%; Activity (U-937 [6]): 1.99%; viability at 0.015 µM (U-937 [8]): 66.9%; Activity (U-937 [9]): 38.6%; viability at 0.015 µM (U-937 [10]): 58.3%; Activity (U-937 [11]): 31.1%
2 | C=CCn1c(=O)/c(=C/CCCCCC)[nH]c(=O)/c1=C/c1ccc(OC)cc1 | 2200 | 1600 | 1600 | 900 | 600 | 2400 | 2000 | 3400 | – | – | – | – | – | – | – | – | –
3 | C=CCn1c(=O)/c(=C/CCCCCCCC)[nH]c(=O)/c1=C/c1ccccc1OC | – | – | – | – | – | – | – | – | Not Active | Not Active | Not Active | Not Active | Not Active | Not Active | Not Active | Not Active | –
4 | C=CCn1c(=O)/c(=C/CCCCC)[nH]c(=O)/c1=C/c1cccc(OC)c1 | – | – | – | – | – | – | – | – | Not Active | Not Active | Not Active | Not Active | Not Active | Not Active | Not Active | Not Active | –
5 | C=CCn1c(=O)/c(=C/CCCCCCCCCCC)[nH]c(=O)/c1=C/c1ccc(OC)cc1 | – | – | – | – | – | – | – | – | Not Active | Not Active | Not Active | Not Active | Not Active | Not Active | Not Active | Not Active | –
6 | C=CCn1c(=O)/c(=C/CCCCCCCCCCCCCCC)[nH]c(=O)/c1=C/c1ccccc1OC | – | – | – | – | – | – | – | – | Not Active | Not Active | Not Active | Not Active | Not Active | Not Active | Not Active | Not Active | –
